Laboratory results: patent US4515806A, “Furan derivatives and addition salts thereof pharmaceutical compositions and the therapeutical applications thereof” (priority 1982, dated 1985)
Where two headings read alike, the source gives them in different places.

Assays:
[1] = test system: gastric juices; experiment: Ligature of pylorus, intravenous treatment (Table B-1); format: in vivo, Male Wistar rats; conditions: for Volume of gastric juice, percentage decrease relative to control / pH of gastric juice, percentage increase relative to control / Total acidity (titration with 0,1N NaOH), percentage decrease relative to control: 10 mg/kg i.v., 3 h after ligature
Method: (§1) The method of […] et al. (J. Pharmac. Exp. […] Male Wistar rats, weighing from 250 to 300 grams were used. […] The rats were anesthetised with ethyl ether, a laparotomy was performed and the pylorus was ligatured. The abdominal incision was then sewn. Treatment was effected: (B-1) intravenously, through the femoral vein. (B-2) intraduodenally, prior to sewing the abdominal incision. Three hours after ligature of the pylorus, the volumen of gastric juices was measured, the pH was determined by a Beckman Century SS-1 pH-meter.

[2] = test system: gastric juices; experiment: Ligature of pylorus, intraduodenal treatment (Table B-2); format: in vivo, Male Wistar rats
Method: as §1

[3] = Solubility (in words); format: physicochemical
[4] = in vivo; conditions: mouse, iv
[5] = test system: rats; experiment: Acute toxicity in rats
[6] = target: T1, histamine H2 receptors (Rattus norvegicus, UniProt P25102); conditions: for inhibition at 0.0434 µM / inhibition at 0.434 µM / inhibition at 4.34 µM / inhibition at 43.4 µM: rat, read-out: Antagonism (% reduction) of the histamine induced response in KCl contracted rat uterus; for EC50: read-out: effective concentration for producing a 50% antagonism of the histamine response (EC50)
T1 construct: the uterine horn was removed and suspended in a De Jalon solution in an organ bath; from tissue; host or cells: rat uterine horn (rats in estrus, stilbestrol-treated)
T1 sequence (P25102 whole entry): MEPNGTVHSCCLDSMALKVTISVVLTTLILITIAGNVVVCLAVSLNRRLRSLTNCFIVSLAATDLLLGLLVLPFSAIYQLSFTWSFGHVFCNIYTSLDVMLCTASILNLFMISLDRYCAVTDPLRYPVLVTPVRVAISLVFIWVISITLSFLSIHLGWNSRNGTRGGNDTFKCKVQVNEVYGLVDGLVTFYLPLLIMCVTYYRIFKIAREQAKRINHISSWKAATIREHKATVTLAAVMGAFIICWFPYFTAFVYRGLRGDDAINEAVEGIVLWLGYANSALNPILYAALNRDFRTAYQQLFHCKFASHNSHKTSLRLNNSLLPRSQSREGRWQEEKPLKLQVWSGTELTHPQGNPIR
Method: Rats in estrus were used and were administered 100 mcg of stilbestrol by intramuscular (i.m.) injection 30 hours before removing the uterus. On the day of the experiment, the uterine horn was removed and suspended in a De Jalon solution in an organ bath, held at 28° C. and aerated with a flow of 95% O2 and 5% CO2. Thereafter a sustained uterine contraction was induced by the addition of a KCl solution to provide a concentration in the organ bath of 4.2 mg/ml, namely, 10 times that of the De Jalon serum. The uterus was caused to relax with the addition of the amount of histamine required to obtain a good response.

[7] = test system: mice
[8] = 1 mg/kg intraduodenal, lot of 4 rats
[9] = 3 mg/kg intraduodenal, 4 or 5 rats
[10] = 10 mg/kg intraduodenal, first lot (4 or 5 rats)
[11] = 10 mg/kg intraduodenal, lot of 8 rats
[12] = 10 mg/kg intraduodenal, second lot (4 or 5 rats)
[13] = 1 mg/kg intraduodenal, lot of 5 rats

| SMILES | Volume of gastric juice, percentage decrease relative to control ([1]; first lot (2 or 3 rats)) | pH of gastric juice, percentage increase relative to control ([1]; first lot (2 or 3 rats)) | Total acidity (titration with 0,1N NaOH), percentage decrease relative to control ([1]; lot of 5 rats) | Volume of gastric juice, percentage decrease relative to control ([1]; lot of 5 rats) | Total acidity (titration with 0,1N NaOH), percentage decrease relative to control ([1]; lot of 8 rats) | Volume of gastric juice, percentage decrease relative to control ([1]; lot of 8 rats) | pH of gastric juice, percentage increase relative to control ([1]; lot of 8 rats) | Total acidity (titration with 0,1N NaOH), percentage decrease relative to control [2, 8] | Volume of gastric juice, percentage decrease relative to control [2, 8] | pH of gastric juice, percentage increase relative to control [2, 8] | Total acidity (titration with 0,1N NaOH), percentage decrease relative to control [2, 9] | Volume of gastric juice, percentage decrease relative to control [2, 9] | pH of gastric juice, percentage increase relative to control [2, 9] | Total acidity (titration with 0,1N NaOH), percentage decrease relative to control [2, 10] | Volume of gastric juice, percentage decrease relative to control [2, 10] | pH of gastric juice, percentage increase relative to control [2, 10] | Total acidity (titration with 0,1N NaOH), percentage decrease relative to control [2, 11] | Volume of gastric juice, percentage decrease relative to control [2, 11] | pH of gastric juice, percentage increase relative to control [2, 11] | solubility ([3]; methanol) | further results |
| --- | --- | --- | --- | --- | --- | --- | --- | --- | --- | --- | --- | --- | --- | --- | --- | --- | --- | --- | --- | --- | --- |
| CN/C(=N/CCSCc1nc[nH]c1C)NC#N [Cimetidine, cimetidine] | 41.0% | 50.4% | 11.7% | 23.2% | 52.7% | 7.3% | 64.9% | 48% | 14% | 46% | 48% | 23% | 29% | 84% | 28% | 50% | 40% | 6.6% | 100% |  | Total acidity (titration with 0,1N NaOH), percentage decrease relative to control [2, 12]: 82%; Volume of gastric juice, percentage decrease relative to control [2, 12]: 51%; pH of gastric juice, percentage increase relative to control [2, 12]: 178%; Total acidity (titration with 0,1N NaOH), percentage decrease relative to control ([2]; 25 mg/kg intraduodenal, 5 rats): 51.5%; Volume of gastric juice, percentage decrease relative to control ([2]; 25 mg/kg intraduodenal, 5 rats): 35.4%; pH of gastric juice, percentage increase relative to control ([2]; 25 mg/kg intraduodenal, 5 rats): 110% |
| CN(C)Cc1ccc(CSCCNC(=C[N+](=O)[O-])NCCO)o1 [Example 1, (a), N-[2-[[(5-[(dimethylamino)methyl]-2-furanyl)methyl]thio]ethyl]-N'-(2-hydroxyethyl)-2-nitro-1,1-ethenediamine] |  |  |  |  |  |  |  |  |  |  |  |  |  |  |  |  |  |  |  | soluble | solubility ([3]; chloroform): soluble |
| CN(C)Cc1ccc(CSCCNC(=C[N+](=O)[O-])NCCO)o1.Cl [Example 1, (b), N-[2-[[(5-[(dimethylamino)methyl]-2-furanyl)methyl]thio]ethyl]-N'-(2-hydroxyethyl)-2-nitro-1,1-ethenediamine hydrochloride] |  |  |  |  |  |  |  |  |  |  |  |  |  |  |  |  |  |  |  | soluble | LD50 [4]: 200 mg/kg; solubility ([3]; water): soluble; activity (reduction in volume, increase in pH of gastric juice) ([1]; intravenous): very high; activity compared with cimetidine ([1]; intravenous): more active than cimetidine; activity compared with ranitidine ([1]; intravenous): rather higher; acute toxicity [5]: low; activity compared with ranitidine ([6]; rat uterus H2 receptors): more active than ranitidine; inhibition at 0.0434 µM [6]: 0%; inhibition at 0.434 µM [6]: 22.2%; inhibition at 4.34 µM [6]: 47.3%; inhibition at 43.4 µM [6]: 81.8%; EC50 [6]: 5.5 µM; activity (reduction in volume, increase in pH of gastric juice) ([2]; intraduodenal): very high; activity compared with cimetidine ([2]; intraduodenal): more active than cimetidine; activity compared with ranitidine ([2]; intraduodenal): practically the same activity; acute toxicity [7]: low |
| O=[N+]([O-])C=C(NCCO)NCCO [Example 2, N,N'-bis(2-hydroxyethyl)-2-nitro-1,1-ethenediamine] |  |  |  |  |  |  |  |  |  |  |  |  |  |  |  |  |  |  |  | slightly soluble | solubility ([3]; ethanol): slightly soluble; solubility ([3]; water): soluble |
| CNC(=C[N+](=O)[O-])NCCSCc1ccc(CN(C)C)o1 [Ranitidine, ranitidine] | 68.1% | 200.8% | 81.8% | 61.4% | 72.7% | 21% | 104.2% | 38% | 46.2% | 17% | 47% | 5% | 46% | 66% | 30% | 95% | 50% | 12% | 97.4% |  | pH of gastric juice, percentage increase relative to control ([1]; lot of 5 rats): 88.5%; EC50 ([6]; rat uterus, KCl contracted): 8.25 µM; inhibition at 0.0434 µM [6]: 0%; inhibition at 0.434 µM [6]: 20%; inhibition at 4.34 µM [6]: 42.2%; inhibition at 43.4 µM [6]: 73.8%; Total acidity (titration with 0,1N NaOH), percentage decrease relative to control [2, 13]: 18%; Volume of gastric juice, percentage increase relative to control [2, 13]: 6%; pH of gastric juice, percentage increase relative to control [2, 13]: 60%; Total acidity (titration with 0,1N NaOH), percentage decrease relative to control [2, 12]: 75%; Volume of gastric juice, percentage decrease relative to control [2, 12]: 58%; pH of gastric juice, percentage increase relative to control [2, 12]: 202%; Total acidity (titration with 0,1N NaOH), percentage decrease relative to control ([2]; 25 mg/kg intraduodenal, 5 rats): 83%; Volume of gastric juice, percentage decrease relative to control ([2]; 25 mg/kg intraduodenal, 5 rats): 55%; pH of gastric juice, percentage increase relative to control ([2]; 25 mg/kg intraduodenal, 5 rats): 210% |
| NCCc1c[nH]cn1 [histamine] |  |  |  |  |  |  |  |  |  |  |  |  |  |  |  |  |  |  |  |  | inhibition at 54.3 µM ([6]; read-out: inhibition of the contraction caused by KCl): 74.5% |
